Molecules are shown by their SMILES. Some results are limits rather than exact numbers.

In the experiment the test system is Bloodstream form of Trypanosoma brucei, strain Lister 427. Briefly: Trypanosoma brucei growth inhibition assay (CellTiter-Glo, 24 h). In kind it is cell-based. To be noted: Trypanosoma brucei; T. Brucei Growth Inibition Assay, class symbols; read-out: T. Brucei GI EC50. The gist of the method: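 Growth read-out was CellTiter-Glo luminescence after 24 h at 37 °C incubation of 1500 bloodstream-form Lister 427 trypanosomes per well with compound, in supplemented IMDM containing 10% FBS and at most 0.25% DMSO.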
As for `COc1ccc2cc(C)n(CC(=O)N3CCN(CC4CCOC4)C[C@H]3c3ncc(-c4cc5ccccc5nc4OC)[nH]3)c2c1` (stereo partly drawn) [2-(6-methoxy-2-methyl-1H-indol-1-yl)-1-((2S)-2-(5-(2-methoxyquinolin-3-yl)-1H-imidazol-2-yl)-4-((tetrahydrofuran-3-yl)methyl)piperazin-1-yl)ethan-1-one], the EC50 was under 100 nM.
For `COc1nc2ccccc2cc1-c1cnc(C2CN(S(=O)(=O)N(C)C)CCN2C(=O)Cc2c(C)[nH]c3ccc(F)cc23)[nH]1` (centres unmarked) [4-(2-(5-fluoro-2-methyl-1H-indol-3-yl)acetyl)-3-(5-(2-methoxyquinolin-3-yl)-1H-imidazol-2-yl)-N,N-dimethylpiperazine-1-sulfonamide], the EC50 is 1010 to 5000 nM.
As to `COc1ccc2[nH]c(C)c(CC(=O)N3CC(=O)N(C)CC3c3ncc(-c4ccc5ccccc5c4)[nH]3)c2c1` (centres unmarked) [4-(2-(5-methoxy-2-methyl-1H-indol-3-yl)acetyl)-1-methyl-5-(5-(naphthalen-2-yl)-1H-imidazol-2-yl)piperazin-2-one], the EC50 is 510 to 1000 nM.
Take `CCC(=O)CCCN1CCN(S(=O)(=O)c2ccccc2)C(c2ncc(-c3ccc4ccccc4c3)[nH]2)C1` (centres unmarked) [6-(3-(5-(naphthalen-2-yl)-1H-imidazol-2-yl)-4-(phenylsulfonyl)piperazin-1-yl)hexan-3-one]: the EC50 lay in the range of 1010 to 5000 nM.
Turning to `CCC(=O)CCCN1CCN(C(=O)Cc2c(C)[nH]c3ccc(OC)cc23)C(c2ncc(-c3ccc4ccccc4c3)o2)C1` (centres unmarked) [6-(4-(2-(5-methoxy-2-methyl-1H-indol-3-yl)acetyl)-3-(5-(naphthalen-2-yl)oxazol-2-yl)piperazin-1-yl)hexan-3-one], the EC50 was in the range of 1010 to 5000 nM.
In the case of `CCC(=O)CCCN1CCN(C(=O)c2ccccc2)C(c2ncc(-c3ccc4ccccc4c3)[nH]2)C1` (centres unmarked) [6-(4-benzoyl-3-(5-(naphthalen-2-yl)-1H-imidazol-2-yl)piperazin-1-yl)hexan-3-one], the EC50 fell in the range of 1010 to 5000 nM.
As for `CCC(=O)CCCN1CCN(Cc2ccccc2)C(c2ncc(-c3ccc4ccccc4c3)[nH]2)C1` (centres unmarked) [6-(4-benzyl-3-(5-(naphthalen-2-yl)-1H-imidazol-2-yl)piperazin-1-yl)hexan-3-one], the EC50 lay within 1010 to 5000 nM.
On to `COc1ccc2nc(C(F)(F)F)n(CC(=O)N3CCS(=O)(=O)C[C@H]3c3ncc(-c4cc5ccccc5nc4OC)[nH]3)c2c1` [(R)-2-(6-methoxy-2-(trifluoromethyl)-1H-benzo[d]imidazol-1-yl)-1-(3-(5-(2-methoxyquinolin-3-yl)-1H-imidazol-2-yl)-1,1-dioxidothiomorpholino)ethan-1-one], for which the EC50 was 100 to 500 nM.
As to `COc1ccc2nc(C(F)(F)F)n(CC(=O)N3CCN(Cc4ccn(C)n4)CC[C@@H]3c3ncc(-c4cc5ccccc5nc4OC)[nH]3)c2c1` [(R)-2-(6-methoxy-2-(trifluoromethyl)-1H-benzo[d]imidazol-1-yl)-1-(7-(5-(2-methoxyquinolin-3-yl)-1H-imidazol-2-yl)-4-((1-methyl-1H-pyrazol-3-yl)methyl)-1,4-diazepan-1-yl)ethan-1-one], the EC50 is 1010 to 5000 nM.
`COc1ccc2nc(C)n(CC(=O)N3CCN(Cc4ccn(C)n4)CC[C@@H]3c3ncc(-c4cc5ccccc5nc4OC)[nH]3)c2c1` [(R)-2-(6-methoxy-2-methyl-1H-benzo[d]imidazol-1-yl)-1-(7-(5-(2-methoxyquinolin-3-yl)-1H-imidazol-2-yl)-4-((1-methyl-1H-pyrazol-3-yl)methyl)-1,4-diazepan-1-yl)ethan-1-one]: the EC50 was under 100 nM.
On to `COc1nc2ccccc2cc1-c1cnc([C@@H]2CN(CC(F)(F)F)CCN2C(=O)Cn2c(C(F)(F)F)nc3ccccc32)[nH]1` [(S)-1-(2-(5-(2-methoxyquinolin-3-yl)-1H-imidazol-2-yl)-4-(2,2,2-trifluoroethyl)piperazin-1-yl)-2-(2-(trifluoromethyl)-1H-benzo[d]imidazol-1-yl)ethan-1-one], for which the EC50 was under 100 nM.

The values above are taken from patent US10815222B2, “Compounds for use in the treatment of kinetoplastid infection” (C.N.C.C.S. S.c.a.r.l. COLLEZIONE NAZIONALE DEI COMPOSTI …, priority 2016, dated 2020).
